Test results from patent US6737383B1, “Herbicidal oxadiazolidines” (priority 1999, dated 2004).

Key:
purple nutsedge = assay: Test B pre/postemergence purple nutsedge; format: in vivo, Cyperus rotundus
In short: (§1)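 Response is a visual 0-to-10 score relative to untreated plants, where 0 means no effect and 10 means complete control, taken twelve to sixteen days after application. Treatments went onto soil at planting and onto foliage of 1- to 4-leaf plants, using a surfactant-containing non-phytotoxic solvent.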

wheat = assay: Test B pre/postemergence wheat; format: in vivo, Triticum aestivum
In short: as §1

crabgrass = assay: Test B pre/postemergence crabgrass; format: in vivo, Digitaria sanguinalis
In short: as §1

bamyardgrass = assay: Test B flood test barnyardgrass; format: in vivo, Echinochloa crus-galli
In short: (§2)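 Plants were grown to the 2-leaf stage before treatment with test chemical, then held in a greenhouse for twelve to sixteen days. Injury was visually rated against untreated controls on a 0–10 scale, where 0 is no effect and 10 is complete control.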

rice = assay: Test B flood test rice; format: in vivo, Oryza sativa
In short: as §2

corn = assay: Test B pre/postemergence corn; format: in vivo, Zea mays; details: for Corn plant response rating: Postemergence; for Plant response rating, Corn: Preemergence
In short: as §1

giant foxtail = assay: Test B pre/postemergence giant foxtail; format: in vivo, Setaria faberii
In short: as §1

sugar beet = assay: Test B pre/postemergence sugar beet; format: in vivo, Beta vulgaris
In short: as §1

bedstraw = assay: Test B pre/postemergence bedstraw; format: in vivo, Galium aparine; details: for Bedstraw plant response rating: Postemergence; for Plant response rating, Bedstraw: Preemergence
In short: as §1

morningglory = assay: Test B pre/postemergence morningglory; format: in vivo, Ipomoea hederacea; details: for Morningglory plant response rating: Postemergence; for Plant response rating, Morningglory: Preemergence
In short: as §1

pigweed = assay: Test B pre/postemergence pigweed; format: in vivo, Amaranthus retroflexus
In short: as §1

blackgrass = assay: Test B pre/postemergence blackgrass; format: in vivo, Alopecurus myosuroides
In short: as §1

rape = assay: Test B pre/postemergence rape; format: in vivo, Brassica napus
In short: as §1

wild oat = assay: Test B pre/postemergence wild oat; format: in vivo, Avena fatua
In short: as §1

smallflower flatsedge = assay: Test B flood test smallflower flatsedge; format: in vivo, Cyperus difformis
In short: as §2

surinam grass = assay: Test B pre/postemergence surinam grass; format: in vivo, Brachiaria decumbens
In short: as §1

[1] = Postemergence, Rate 62 g/ha, scale 0 to 10, 0 is no effect, 10 is complete control
[2] = Postemergence, Rate 250 g/ha, scale 0 to 10, 0 no effect, 10 complete control
[3] = Preemergence, Rate 62 g/ha, scale 0 to 10, 0 is no effect, 10 is complete control
[4] = Preemergence, Rate 125 g/ha, scale 0 to 10 (0 no effect, 10 complete control)
[5] = Preemergence, Rate 250 g/ha, scale of 0 to 10 where 0 is no effect and 10 is complete control
[6] = Preemergence, Rate 500 g/ha, scale 0 (no effect) to 10 (complete control)
[7] = Rate 125 g/ha, Postemergence, scale 0 to 10, 0 no effect, 10 complete control
[8] = Rate 500 g/ha, Postemergence, scale 0 to 10, 0 no effect, 10 complete control
[9] = Rate 125 g/ha, Postemergence section (flood test species), scale 0 to 10, 0 no effect, 10 complete control
[10] = Rate 500 g/ha, listed under Postemergence (flood test species), scale 0 to 10, 0 no effect, 10 complete control
[11] = flood test, listed under Postemergence, Rate 250 g/ha, scale 0 to 10, 0 no effect, 10 complete control
[12] = Rate 62 g/ha, scale 0 to 10, 0 is no effect, 10 is complete control
[13] = Rate 250 g/ha, scale 0 to 10, 0 no effect, 10 complete control
[14] = Rate 125 g/ha, scale 0 to 10 (0 no effect, 10 complete control)
[15] = Rate 250 g/ha, scale of 0 to 10 where 0 is no effect and 10 is complete control
[16] = Rate 125 g/ha, scale 0 to 10, 0 no effect, 10 complete control
[17] = Rate 500 g/ha, scale 0 to 10, 0 no effect, 10 complete control

In the case of `CCc1cccc(C)c1-n1c(=O)on(C(=O)N(c2ccc(F)cc2)C(C)C)c1=O` [Compound 52], the “Nutsedge plant response rating” value (purple nutsedge; [1]) is reported as 0, the “Nutsedge plant response rating” value (purple nutsedge; [2]) is reported as 0 and the “Plant response rating, Nutsedge” value (purple nutsedge; [3]) is reported as 0. The “Plant response rating, Nutsedge” value (purple nutsedge; [4]) was 0, the “Plant response rating, Nutsedge” value (purple nutsedge; [5]) was 0 and the “Nutsedge plant response rating” value (purple nutsedge; [6]) was 0. For the same molecule, the “Nutsedge plant response rating” value (purple nutsedge; [7]) was 0, the “Nutsedge plant response rating” value (purple nutsedge; [8]) was 0 and the “Wheat plant response rating” value (wheat; [1]) was 0. For the same molecule, the “Wheat plant response rating” value (wheat; [2]) was 0, the “Plant response rating, Wheat” value (wheat; [3]) was 0 and the “Plant response rating, Wheat” value (wheat; [4]) was 0. For the same molecule, the “Plant response rating, Wheat” value (wheat; [5]) was 0, the “Wheat plant response rating” value (wheat; [6]) was 0 and the “Wheat plant response rating” value (wheat; [7]) was 0. The “Wheat plant response rating” value (wheat; [8]) was 0, the “Crabgrass plant response rating” value (crabgrass; [1]) was 1 and the “Crabgrass plant response rating” value (crabgrass; [2]) was 5. The “Plant response rating, Crabgrass” value (crabgrass; [3]) was 0, the “Plant response rating, Crabgrass” value (crabgrass; [4]) was 1 and the “Plant response rating, Crabgrass” value (crabgrass; [5]) was 6. For the same molecule, the “Crabgrass plant response rating” value (crabgrass; [6]) was 10, the “Crabgrass plant response rating” value (crabgrass; [7]) was 1 and the “Crabgrass plant response rating” value (crabgrass; [8]) was 6. The “Barnyardgrass plant response rating” value (bamyardgrass; [1]) was 0, the “Barnyardgrass plant response rating” value (bamyardgrass; [9]) was 0 and the “Barnyardgrass plant response rating” value (bamyardgrass; [10]) was 0. The “Barnyardgrass plant response rating” value (bamyardgrass; [11]) was 0, the “Rice plant response rating” value (rice; [1]) was 0 and the “Rice plant response rating” value (rice; [9]) was 0. For the same molecule, the “Rice plant response rating” value (rice; [10]) was 0, the “Rice plant response rating” value (rice; [11]) was 0 and the “Corn plant response rating” value (corn; [12]) was 0. For the same molecule, the “Corn plant response rating” value (corn; [13]) was 3, the “Plant response rating, Corn” value (corn; [12]) was 0 and the “Plant response rating, Corn” value (corn; [14]) was 0. For the same molecule, the “Plant response rating, Corn” value (corn; [15]) was 0, the “Corn plant response rating” value (corn; [16]) was 0 and the “Corn plant response rating” value (corn; [17]) was 4. For the same molecule, the “Giant foxtail plant response rating” value (giant foxtail; [1]) was 0, the “Giant foxtail plant response rating” value (giant foxtail; [2]) was 3 and the “Plant response rating, Giant foxtail” value (giant foxtail; [3]) was 3. For the same molecule, the “Plant response rating, Giant foxtail” value (giant foxtail; [4]) was 5, the “Plant response rating, Giant foxtail” value (giant foxtail; [5]) was 7 and the “Giant foxtail plant response rating” value (giant foxtail; [6]) was 10. For the same molecule, the “Giant foxtail plant response rating” value (giant foxtail; [7]) was 3, the “Giant foxtail plant response rating” value (giant foxtail; [8]) was 4 and the “Sugarbeets plant response rating” value (sugar beet; [1]) was 0. The “Sugarbeets plant response rating” value (sugar beet; [2]) was 0, the “Plant response rating, Sugarbeets” value (sugar beet; [3]) was 0 and the “Plant response rating, Sugarbeets” value (sugar beet; [4]) was 0. The “Plant response rating, Sugarbeets” value (sugar beet; [5]) was 0, the “Sugarbeets plant response rating” value (sugar beet; [6]) was 0 and the “Sugarbeets plant response rating” value (sugar beet; [7]) was 0. For the same molecule, the “Sugarbeets plant response rating” value (sugar beet; [8]) was 0, the “Bedstraw plant response rating” value (bedstraw; [12]) was 1 and the “Bedstraw plant response rating” value (bedstraw; [13]) was 8. The “Plant response rating, Bedstraw” value (bedstraw; [12]) was 0, the “Plant response rating, Bedstraw” value (bedstraw; [14]) was 0 and the “Plant response rating, Bedstraw” value (bedstraw; [15]) was 0. The “Bedstraw plant response rating” value (bedstraw; [16]) was 5, the “Morningglory plant response rating” value (morningglory; [12]) was 1 and the “Morningglory plant response rating” value (morningglory; [13]) was 1. The “Plant response rating, Morningglory” value (morningglory; [12]) was 0, the “Plant response rating, Morningglory” value (morningglory; [14]) was 0 and the “Plant response rating, Morningglory” value (morningglory; [15]) was 0. For the same molecule, the “Morningglory plant response rating” value (morningglory; [16]) was 1, the “Morningglory plant response rating” value (morningglory; [17]) was 1 and the “Redroot pigweed plant response rating” value (pigweed; [1]) was 0. For the same molecule, the “Redroot pigweed plant response rating” value (pigweed; [2]) was 0, the “Plant response rating, Redroot pigweed” value (pigweed; [3]) was 0 and the “Plant response rating, Redroot pigweed” value (pigweed; [4]) was 0. For the same molecule, the “Plant response rating, Redroot pigweed” value (pigweed; [5]) was 1, the “Redroot pigweed plant response rating” value (pigweed; [6]) was 6 and the “Redroot pigweed plant response rating” value (pigweed; [7]) was 0. For the same molecule, the “Redroot pigweed plant response rating” value (pigweed; [8]) was 0, the “Blackgrass plant response rating” value (blackgrass; [1]) was 0 and the “Blackgrass plant response rating” value (blackgrass; [2]) was 0. The “Plant response rating, Blackgrass” value (blackgrass; [3]) was 0, the “Plant response rating, Blackgrass” value (blackgrass; [4]) was 0 and the “Plant response rating, Blackgrass” value (blackgrass; [5]) was 3. The “Blackgrass plant response rating” value (blackgrass; [6]) was 4, the “Blackgrass plant response rating” value (blackgrass; [7]) was 0 and the “Blackgrass plant response rating” value (blackgrass; [8]) was 0. The “Rape plant response rating” value (rape; [1]) was 0, the “Rape plant response rating” value (rape; [2]) was 0 and the “Plant response rating, Rape” value (rape; [3]) was 0. For the same molecule, the “Plant response rating, Rape” value (rape; [4]) was 0, the “Plant response rating, Rape” value (rape; [5]) was 0 and the “Rape plant response rating” value (rape; [6]) was 0. For the same molecule, the “Rape plant response rating” value (rape; [7]) was 0, the “Rape plant response rating” value (rape; [8]) was 0 and the “Wild oats plant response rating” value (wild oat; [1]) was 0. The “Wild oats plant response rating” value (wild oat; [2]) was 1, the “Plant response rating, Wild oats” value (wild oat; [4]) was 0 and the “Plant response rating, Wild oats” value (wild oat; [5]) was 0. For the same molecule, the “Wild oats plant response rating” value (wild oat; [6]) was 1, the “Wild oats plant response rating” value (wild oat; [7]) was 0 and the “Wild oats plant response rating” value (wild oat; [8]) was 1. The “S. Flatsedge plant response rating” value (smallflower flatsedge; [1]) was 0, the “S. Flatsedge plant response rating” value (smallflower flatsedge; [9]) was 0 and the “S. Flatsedge plant response rating” value (smallflower flatsedge; [10]) was 0. The “S. Flatsedge plant response rating” value (smallflower flatsedge; [11]) was 0, the “B. signalgrass plant response rating” value (surinam grass; [1]) was 0 and the “B. signalgrass plant response rating” value (surinam grass; [2]) was 0. The “Plant response rating, B. signalgrass” value (surinam grass; [3]) was 0, the “Plant response rating, B. signalgrass” value (surinam grass; [4]) was 0 and the “Plant response rating, B. signalgrass” value (surinam grass; [5]) was 0. For the same molecule, the “B. signalgrass plant response rating” value (surinam grass; [6]) was 6, the “B. signalgrass plant response rating” value (surinam grass; [7]) was 0 and the “B. signalgrass plant response rating” value (surinam grass; Rate 500 g/ha, Postemergence, scale of 0 to 10 where 0 is no effect and 10 is complete control) was 1.
